Assay results taken from ChEMBL document CHEMBL1133414, “Bifunctional alkylating agents derived from duocarmycin SA: potent antitumor activity with altered sequence selectivity” (Bioorg Med Chem Lett, 2000).

System: L1210
Assay: In vitro cytotoxicity against L1210 cell line
Assay type: functional, cell-based
Settings: Mus musculus

## COC(=O)c1cc2c([nH]1)C(=O)C=C1N(C(=O)c3cc4cc(OC)c(OC)c(OC)c4[nH]3)C[C@@H]3C[C@@]123
  IC50: 0.1 nM

## COC(=O)c1cc2c([nH]1)C(=O)C=C1N(C(=O)c3cc4c([nH]3)C(=O)C=C3N(C(=O)OC(C)(C)C)C[C@H]5C[C@]345)C[C@@H]3C[C@@]123
  IC50: 0.04 nM

## COC(=O)c1cc2c([nH]1)C(=O)C=C1N(C(=O)c3cc4c([nH]3)C(=O)C=C3N(C(=O)OC(C)(C)C)C[C@@H]5C[C@@]345)C[C@@H]3C[C@@]123
  IC50: 0.05 nM

## COC(=O)c1cc2c([nH]1)C(=O)C=C1N(C(=O)c3cc4c([nH]3)C(=O)C=C3N(C(=O)OC(C)(C)C)C[C@H]5C[C@]345)C[C@H]3C[C@]123
  IC50: 0.003 nM

## COC(=O)c1cc2c([nH]1)C(=O)C=C1N(C(=O)c3cc4c([nH]3)C(=O)C=C3N(C(=O)OC(C)(C)C)C[C@@H]5C[C@@]345)C[C@H]3C[C@]123 (mixture of isomers)
  IC50: 0.005 nM

## COC(=O)c1cc2c([nH]1)C(=O)C=C1N(C(=O)c3cc4cc(OC)c(OC)c(OC)c4[nH]3)C[C@H]3C[C@]123 [DUOCARMYCIN]
  IC50: 0.01 nM
